Source: patent publication US9469645B2, “Compounds and compositions for the treatment of parasitic diseases” (Novartis AG, priority 2009, dated 2016)

Assays:
[1] = tested on: 3D7 P. falciparum strain; experiment: parasite proliferation assay in infected red blood cells (SYBR Green I); type: cell-based, Plasmodium falciparum; details: Plasmodium falciparum, 3D7, Erythrocyte, 3D7 strain; read-out: EC50 3D7 strain
Outline: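 P. falciparum 3D7 grown in O+ human erythrocytes to 3–8% parasitemia and exposed to compounds. Proliferation read as the increase in parasite DNA. Detection used SYBR Green I in saponin/triton-X/EDTA lysis buffer, with overnight lysis at room temperature.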

[2] = tested on: W2 strain; experiment: parasite proliferation assay in infected red blood cells (SYBR Green I), W2 strain; type: cell-based; details: Plasmodium falciparum, Erythrocyte
From the text: Compounds of the invention can be assayed to measure their capacity to inhibit proliferation of parasitemia in infected red blood cells. The proliferation is quantified by the addition of SYBR Green I (INVITROGEN)® dye which has a high affinity for double stranded DNA.

SMILES | EC50 [1] | EC50 [2]
Cc1ccc(Nc2c(-c3ccc(F)cc3)nc3n2CC(=O)NC3(C)C)cc1F [Compound 598] | 0.04 µM | 0.074 µM
Cc1ccc(Nc2c(-c3cccc(F)c3)nc3n2C(C)(C)CN(C(=O)[C@@H](O)Cc2ccccc2)C3)cc1 [Compound 599] | 0.12 µM | 0.134 µM
Cc1cc(Nc2c(-c3ccc(F)cc3)nc3n2CCN(C(=O)CN)C3(C)C)nn1C [Compound 600] | 0.07 µM | 0.05 µM
CCn1nccc1Nc1c(-c2ccc(F)cc2)nc2n1CCN(C(=O)CN)C2(C)C [Compound 601] | 3.96 µM | 4.12 µM
CC(C)[C@@H]1c2nc(-c3ccc(F)cc3)c(Nc3ccc(Cl)c(F)c3)n2CCN1C(=O)CN [Compound 602] | 0.17 µM | 0.204 µM
Cc1ccc(Nc2c(-c3cccc(F)c3)nc3n2CC(=O)NC3(C)C)cc1F [Compound 603] | 0.05 µM | 0.073 µM
Cc1ccc(Nc2c(-c3cccc(F)c3)nc3n2CC(=O)NC3(C)C)cc1Cl [Compound 604] | 0.04 µM | 0.049 µM
CC1(C)NC(=O)Cn2c1nc(-c1cccc(F)c1)c2Nc1ccc(Cl)c(F)c1 [Compound 605] | 0.04 µM | 0.057 µM
CN1CCn2c(nc(-c3ccc(F)cc3)c2Nc2ccc(F)cc2)C1(C)C [Compound 606] | 0.02 µM | 0.028 µM
CN1CCn2c(nc(-c3ccc(F)cc3)c2Nc2ccc(Cl)cc2)C1(C)C [Compound 607] | 0.03 µM | 0.048 µM
CN1Cc2nc(-c3ccc(F)cc3)c(Nc3ccc(Cl)cc3)n2C(C)(C)C1 [Compound 608] | 6.91 µM | 5.56 µM
CN1Cc2nc(-c3ccc(F)cc3)c(Nc3ccc(Cl)c(F)c3)n2C(C)(C)C1 [Compound 609] | 7.02 µM | 4.93 µM
Cc1cc(Nc2c(-c3ccc(F)cc3)nc3n2C(C)(C)CN(C)C3)ccc1Cl [Compound 610] | 6.25 µM | 4.9 µM
CN1Cc2nc(-c3ccc(F)cc3)c(Nc3ccc(F)c(F)c3)n2C(C)(C)C1 [Compound 611] | 7.67 µM | 5.76 µM
Cc1ccc(Nc2c(-c3ccc(F)cc3)nc3n2C(C)(C)CN(C)C3)cc1C#N [Compound 612] | 6.9 µM | 6.08 µM
COc1ccc(CN2Cc3nc(-c4ccc(F)cc4)c(Nc4ccc(Cl)c(F)c4)n3C(C)(C)C2=O)cc1 [Compound 613] | 6.27 µM | 5.71 µM
COc1ccc(CN2Cc3nc(-c4ccc(F)cc4)c(Nc4ccc(Cl)c(C)c4)n3C(C)(C)C2=O)cc1 [Compound 614] | 5.02 µM | 4.52 µM
CN1Cc2nc(-c3ccc(F)cc3)c(Nc3ccc(Cl)c(F)c3)n2C(C)(C)C1=O [Compound 615] | 6.41 µM | 5.61 µM
Cc1cc(Nc2c(-c3ccc(F)cc3)nc3n2C(C)(C)C(=O)N(C)C3)ccc1Cl [Compound 616] | 5.72 µM | 4.56 µM
Cc1cc(Nc2c(-c3ccc(F)cc3)nc3n2C(C)(C)C(=O)N(C)C3)ccc1F [Compound 617] | 6.33 µM | 6.88 µM

SMILES | EC50 [1] | EC50 [2]
CC1(C)C(=O)NCc2nc(-c3ccc(F)cc3)c(Nc3ccc(Cl)c(F)c3)n21 [Compound 618] | 2.13 µM | 2.89 µM
Cc1cc(Nc2c(-c3ccc(F)cc3)nc3n2C(C)(C)C(=O)NC3)ccc1Cl [Compound 619] | 0.57 µM | 0.713 µM
CC1(C)CN(C(=O)CN)Cc2nc(-c3cccc(F)c3)c(Nc3ccc(Cl)cc3)n21 [Compound 620] | 0.04 µM | 0.041 µM
CC1(C)CN(C(=O)CN)Cc2nc(-c3cccc(F)c3)c(Nc3ccc(F)cc3)n21 [Compound 621] | 0.04 µM | 0.045 µM
CC1(C)CN(C(=O)CN)Cc2nc(-c3cccc(F)c3)c(Nc3ccc(F)c(F)c3)n21 [Compound 622] | 0.1 µM | 0.121 µM
CC1(C)CN(C(=O)CN)Cc2nc(-c3cccc(F)c3)c(Nc3ccc(Cl)c(F)c3)n21 [Compound 623] | 0.03 µM | 0.032 µM
CC1(C)CN(C(=O)CN)Cc2nc(-c3cccc(F)c3)c(Nc3ccc(F)c(Cl)c3)n21 [Compound 624] | 0.1 µM | 0.167 µM
Cc1cc(Nc2c(-c3cccc(F)c3)nc3n2C(C)(C)CN(C(=O)CN)C3)ccc1F [Compound 625] | 0.17 µM | 0.194 µM
Cc1cc(Nc2c(-c3cccc(F)c3)nc3n2C(C)(C)CN(C(=O)CN)C3)ccc1Cl [Compound 626] | 0.02 µM | 0.017 µM
CN1CCn2c(nc(-c3ccc(F)cc3)c2Nc2ccc(F)c(Cl)c2)C1(C)C [Compound 627] | 0.17 µM | 0.194 µM
Cc1cc(Nc2c(-c3ccc(F)cc3)nc3n2CCN(C(=O)C(C)(C)N)C3)ccc1F [Compound 628] | 0.033 µM | 0.04 µM
Cc1cc(Nc2c(-c3ccc(F)cc3)nc3n2CCN(C(=O)C(C)(C)N)C3)ccc1Cl [Compound 629] | 0.017 µM | 0.023 µM
Cc1ccc(Nc2c(-c3ccc(F)cc3)nc3n2CCN(C(=O)C(C)(C)N)C3)cc1C#N [Compound 630] | 0.035 µM | 0.085 µM
Cc1ccc(Nc2c(-c3ccc(F)cc3)nc3n2CCN(C(=O)C(C)(C)N)C3)cc1F [Compound 631] | 0.049 µM | 0.062 µM
Cc1ccc(Nc2c(-c3ccc(F)cc3)nc3n2CCN(C(=O)C(C)(C)N)C3)cc1Cl [Compound 632] | 0.015 µM | 0.016 µM
CC(C)(N)C(=O)N1CCn2c(nc(-c3ccc(F)cc3)c2Nc2ccc(C(F)(F)F)c(Cl)c2)C1 [Compound 633] | 0.528 µM | 0.331 µM
CC(C)(N)C(=O)N1CCn2c(nc(-c3ccc(F)cc3)c2Nc2ccc(F)c(C(F)(F)F)c2)C1 [Compound 634] | 0.467 µM | 0.447 µM
CC(C)(N)C(=O)N1CCn2c(nc(-c3ccc(F)cc3)c2Nc2ccc(C#N)c(C(F)(F)F)c2)C1 [Compound 635] | 0.94 µM | 1.76 µM
CC(C)(N)C(=O)N1CCn2c(nc(-c3ccc(F)cc3)c2Nc2ccc(F)c(C#N)c2)C1 [Compound 636] | 0.21 µM | 0.183 µM
Cc1ccc(Nc2c(-c3ccc(F)cc3)nc3n2CCN(C(=O)C(C)(C)N)C3)cc1C [Compound 637] | 0.027 µM | 0.026 µM

SMILES | EC50 [1] | EC50 [2]
Cc1cccc(Nc2c(-c3ccc(F)cc3)nc3n2CCN(C(=O)C(C)(C)N)C3)c1 [Compound 638] | 0.065 µM | 0.068 µM
CC(C)(N)C(=O)N1CCn2c(nc(-c3ccc(F)cc3)c2Nc2cccc(Cl)c2)C1 [Compound 639] | 0.082 µM | 0.093 µM
CC(C)(N)C(=O)N1CCn2c(nc(-c3ccc(F)cc3)c2Nc2cccc(OC(F)(F)F)c2)C1 [Compound 640] | 3.95 µM | 4.51 µM
CCc1ccc(Nc2c(-c3ccc(F)cc3)nc3n2CCN(C(=O)C(C)(C)N)C3)cc1 [Compound 641] | 0.799 µM | 1.28 µM
CC(C)(N)C(=O)N1CCn2c(nc(-c3ccc(F)cc3)c2Nc2ccc(OC(F)F)cc2)C1 [Compound 642] | 2.01 µM | 2.5 µM
CC(C)(N)C(=O)N1CCn2c(nc(-c3ccc(F)cc3)c2Nc2ccc(OC(F)(F)F)cc2)C1 [Compound 643] | 2.8 µM | 2.17 µM
CC(C)(N)C(=O)N1CCn2c(nc(-c3ccc(F)cc3)c2Nc2cc(Cl)cc(Cl)c2)C1 [Compound 644] | 0.31 µM | 0.49 µM
CC1(C)N=C2c3nc(-c4ccc(F)cc4)c(Nc4ccc(F)c(F)c4)n3CCN2C1=O [Compound 645, 8-(3,4-difluorophenylamino)-9-(4-fluorophenyl)-2,2-dimethyl-5,6-dihydrodiimidazo[1,2-a:2′,1′-c]pyrazin-3 (2H)-one] | 5.13 µM | 7.6 µM
CC1(C)NC2c3nc(-c4ccc(F)cc4)c(Nc4ccc(F)c(F)c4)n3CCN2C1=O (stereo not drawn) [Compound 646, 8-(3,4-difluorophenylamino)-9-(4-fluorophenyl)-2,2-dimethyl-1,2,5,6-tetrahydrodiimidazo[1,2-a:2′,1′-c]pyrazin-3(10bH)-one] | 5.68 µM | 6.13 µM
CC1(C)c2nc(-c3ccc(F)cc3)c(Nc3ccc(-c4ccccc4)cc3)n2CCN1C(=O)CN [Compound 647] | 0.279 µM | 0.25 µM
CCc1ccc(Nc2c(-c3ccc(F)cc3)nc3n2CCN(C(=O)CN)C3(C)C)cc1 [Compound 648] | 0.009 µM | 0.008 µM
CC1(C)c2nc(-c3ccc(F)cc3)c(Nc3ccc(OC(F)(F)F)cc3)n2CCN1C(=O)CN [Compound 649] | 0.024 µM | 0.018 µM
CC1(C)c2nc(-c3ccc(F)cc3)c(Nc3cccc(OC(F)(F)F)c3)n2CCN1C(=O)CN [Compound 650] | 0.012 µM | 0.009 µM
CC1(C)c2nc(-c3ccc(F)cc3)c(Nc3cccc(Cl)c3)n2CCN1C(=O)CN [Compound 651] | 0.008 µM | 0.005 µM
CC1(C)c2nc(-c3ccc(F)cc3)c(Nc3cccc(C(F)(F)F)c3)n2CCN1C(=O)CN [Compound 652] | 0.019 µM | 0.012 µM
CC1(C)c2nc(-c3ccc(F)cc3)c(Nc3cccc(C#N)c3)n2CCN1C(=O)CN [Compound 653] | 0.006 µM | 0.009 µM
Cc1ccc(Nc2c(-c3ccc(F)cc3)nc3n2CCN(C(=O)CN)C3(C)C)cc1C [Compound 654] | 0.005 µM | 0.006 µM
CC1(C)c2nc(-c3ccc(F)cc3)c(Nc3ccc(C#N)c(C(F)(F)F)c3)n2CCN1C(=O)CN [Compound 655] | 0.017 µM | 0.02 µM
Cc1cc(C)cc(Nc2c(-c3ccc(F)cc3)nc3n2CCN(C(=O)CN)C3(C)C)c1 [Compound 656] | 0.006 µM | 0.007 µM
CC1(C)c2nc(-c3ccc(F)cc3)c(Nc3ccc(F)c(C(F)(F)F)c3)n2CCN1C(=O)CN [Compound 657] | 0.618 µM | 1.09 µM
